Measured values from the supplement of paper PMC10307832.

What was measured:
Test in all cases: relative viability (nuclei count vs DMSO), 5 days (fraction); higher = more cells survive
[1] = test system: A-427
Procedure, shortened: (§1)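 After 5 days of treatment, lung cancer cells in 1536-well plates were fixed and stained in a single step (final 0.05% Triton X-100, 1% formaldehyde, 1 ug/ml Hoechst) and their nuclei counted on 4× images. Treatment had been applied by pin tool the day after seeding as one drug alone or as a fixed anchor-drug dose with five library-drug doses (not always all listed) in √10 steps. Relative viability is the nuclei count of treated wells divided by that of vehicle wells, and values are medians of duplicate plates.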

[2] = test system: ABC-1
Procedure, shortened: as §1

[3] = test system: EMC-BAC-2
Procedure, shortened: as §1

[4] = test system: HARA
Procedure, shortened: as §1

[5] = test system: HOP-62
Procedure, shortened: as §1

[6] = test system: LK-2
Procedure, shortened: as §1

[7] = test system: LXF-289
Procedure, shortened: as §1

[8] = test system: NCI-H1944
Procedure, shortened: as §1

[9] = test system: NCI-H1993
Procedure, shortened: as §1

[10] = test system: NCI-H2009
Procedure, shortened: as §1

[11] = test system: NCI-H2170
Procedure, shortened: as §1

[12] = test system: NCI-H2228
Procedure, shortened: as §1

[13] = test system: NCI-H3122
Procedure, shortened: as §1

[14] = test system: NCI-H322M
Procedure, shortened: as §1

[15] = test system: NCI-H522
Procedure, shortened: as §1

[16] = test system: NCI-H596
Procedure, shortened: as §1

[17] = test system: NCI-H727
Procedure, shortened: as §1

[18] = test system: PC-3 [JPC-3]
Procedure, shortened: as §1

[19] = test system: SK-MES-1
Procedure, shortened: as §1

[20] = test system: SW 1573
Procedure, shortened: as §1

[21] = test system: SW 900
Procedure, shortened: as §1

Work on `O=c1cc(-c2cccc3c2Sc2ccccc2S3)oc(N2CCOCC2)c1` + O=C(CCCCCCC(=O)Nc1ccccc1)NO [Vorinostat] (partner 1 µM) yielded a relative viability ([1]; first compound 0.08 µM) of 0.863, a relative viability ([1]; first compound 0.253 µM) of 0.931 and a relative viability ([1]; first compound 0.8 µM) of 0.897. For the same compound, the relative viability ([1]; first compound 2.53 µM) was 0.834, the relative viability ([1]; first compound 8 µM) was 0.829 and the relative viability ([2]; first compound 0.08 µM) was 1.13. For the same compound, the relative viability ([2]; first compound 0.253 µM) was 1.1, the relative viability ([2]; first compound 0.8 µM) was 1.24 and the relative viability ([2]; first compound 2.53 µM) was 1.15. For the same compound, the relative viability ([2]; first compound 8 µM) was 0.972, the relative viability ([3]; first compound 0.08 µM) was 0.35 and the relative viability ([3]; first compound 0.253 µM) was 0.471. For the same compound, the relative viability ([3]; first compound 0.8 µM) was 0.524, the relative viability ([3]; first compound 2.53 µM) was 0.607 and the relative viability ([3]; first compound 8 µM) was 0.48. The relative viability ([4]; first compound 0.08 µM) was 0.538, the relative viability ([4]; first compound 0.253 µM) was 0.59 and the relative viability ([4]; first compound 0.8 µM) was 0.442. For the same compound, the relative viability ([4]; first compound 8 µM) was 0.36, the relative viability ([5]; first compound 0.08 µM) was 0.646 and the relative viability ([5]; first compound 0.253 µM) was 0.832. It also gave a relative viability ([5]; first compound 0.8 µM) of 0.691, a relative viability ([5]; first compound 2.53 µM) of 0.661 and a relative viability ([5]; first compound 8 µM) of 0.664. The relative viability ([6]; first compound 0.08 µM) was 0.261, the relative viability ([6]; first compound 0.253 µM) was 0.327 and the relative viability ([6]; first compound 0.8 µM) was 0.369. It also gave a relative viability ([6]; first compound 2.53 µM) of 0.287, a relative viability ([6]; first compound 8 µM) of 0.358 and a relative viability ([7]; first compound 0.08 µM) of 0.902. The relative viability ([7]; first compound 0.253 µM) was 0.784, the relative viability ([7]; first compound 0.8 µM) was 0.782 and the relative viability ([7]; first compound 2.53 µM) was 0.661. It also gave a relative viability ([7]; first compound 8 µM) of 0.819, a relative viability ([8]; first compound 0.08 µM) of 0.58 and a relative viability ([8]; first compound 0.253 µM) of 0.586. It also gave a relative viability ([8]; first compound 0.8 µM) of 0.513, a relative viability ([8]; first compound 2.53 µM) of 0.544 and a relative viability ([8]; first compound 8 µM) of 0.596. The relative viability ([9]; first compound 0.08 µM) was 0.723, the relative viability ([9]; first compound 0.253 µM) was 0.843 and the relative viability ([9]; first compound 0.8 µM) was 0.908. It also gave a relative viability ([9]; first compound 2.53 µM) of 0.755, a relative viability ([9]; first compound 8 µM) of 0.736 and a relative viability ([10]; first compound 0.08 µM) of 0.761. The relative viability ([10]; first compound 0.253 µM) was 0.751, the relative viability ([10]; first compound 0.8 µM) was 0.667 and the relative viability ([10]; first compound 2.53 µM) was 0.684. It also gave a relative viability ([10]; first compound 8 µM) of 0.699, a relative viability ([11]; first compound 0.08 µM) of 0.857 and a relative viability ([11]; first compound 0.253 µM) of 0.952. The relative viability ([11]; first compound 0.8 µM) was 0.92, the relative viability ([11]; first compound 2.53 µM) was 0.693 and the relative viability ([11]; first compound 8 µM) was 0.932. For the same compound, the relative viability ([12]; first compound 0.08 µM) was 0.824, the relative viability ([12]; first compound 0.253 µM) was 0.646 and the relative viability ([12]; first compound 0.8 µM) was 0.76. The relative viability ([12]; first compound 2.53 µM) was 0.7, the relative viability ([12]; first compound 8 µM) was 0.578 and the relative viability ([13]; first compound 0.08 µM) was 0.99. The relative viability ([13]; first compound 0.253 µM) was 1.2, the relative viability ([13]; first compound 0.8 µM) was 1.09 and the relative viability ([13]; first compound 2.53 µM) was 0.93. The relative viability ([13]; first compound 8 µM) was 1.05, the relative viability ([14]; first compound 0.08 µM) was 0.839 and the relative viability ([14]; first compound 0.253 µM) was 1.01. For the same compound, the relative viability ([14]; first compound 0.8 µM) was 0.948, the relative viability ([14]; first compound 2.53 µM) was 0.825 and the relative viability ([14]; first compound 8 µM) was 0.867. It also gave a relative viability ([15]; first compound 0.08 µM) of 0.952, a relative viability ([15]; first compound 0.253 µM) of 0.909 and a relative viability ([15]; first compound 0.8 µM) of 0.811. It also gave a relative viability ([15]; first compound 2.53 µM) of 0.736, a relative viability ([15]; first compound 8 µM) of 1 and a relative viability ([16]; first compound 0.08 µM) of 0.51. It also gave a relative viability ([16]; first compound 0.253 µM) of 0.749, a relative viability ([16]; first compound 0.8 µM) of 0.585 and a relative viability ([16]; first compound 2.53 µM) of 0.575. For the same compound, the relative viability ([16]; first compound 8 µM) was 0.717, the relative viability ([17]; first compound 0.08 µM) was 1.01 and the relative viability ([17]; first compound 0.253 µM) was 1.29. The relative viability ([17]; first compound 2.53 µM) was 1.09, the relative viability ([17]; first compound 8 µM) was 1.24 and the relative viability ([18]; first compound 0.08 µM) was 0.579. It also gave a relative viability ([18]; first compound 0.253 µM) of 0.788, a relative viability ([18]; first compound 0.8 µM) of 0.769 and a relative viability ([18]; first compound 2.53 µM) of 0.79. It also gave a relative viability ([18]; first compound 8 µM) of 0.851, a relative viability ([19]; first compound 0.08 µM) of 1.15 and a relative viability ([19]; first compound 0.253 µM) of 1.23. The relative viability ([19]; first compound 0.8 µM) was 1.01, the relative viability ([19]; first compound 2.53 µM) was 0.975 and the relative viability ([19]; first compound 8 µM) was 0.939. It also gave a relative viability ([20]; first compound 0.08 µM) of 0.702, a relative viability ([20]; first compound 0.253 µM) of 0.933 and a relative viability ([20]; first compound 0.8 µM) of 1.01. For the same compound, the relative viability ([20]; first compound 2.53 µM) was 0.771, the relative viability ([20]; first compound 8 µM) was 0.907 and the relative viability ([21]; first compound 0.253 µM) was 0.529. The relative viability ([21]; first compound 0.8 µM) was 0.493, the relative viability ([21]; first compound 2.53 µM) was 0.427 and the relative viability ([21]; first compound 8 µM) was 0.393.
